In the NIST ThermoML archive (doi:10.1021/je900596d):

Settings: Vibrating tube method

FC(F)=C(F)C(F)(F)F [hexafluoropropene]
Settings	mass density [kg/m3]
357.01 K, 9852.5 kPa, Liquid	1135.74
357.01 K, 9892.6 kPa, Liquid	1136.38
357.01 K, 9933 kPa, Liquid	1137.03
357.01 K, 9973.2 kPa, Liquid	1137.69
357.06 K, 1.6 kPa, Fluid (supercritical or subcritical phases)	0.18
357.06 K, 3.4 kPa, Fluid (supercritical or subcritical phases)	0.25
357.06 K, 4.2 kPa, Fluid (supercritical or subcritical phases)	0.26
357.06 K, 4.9 kPa, Fluid (supercritical or subcritical phases)	0.29
357.06 K, 6.3 kPa, Fluid (supercritical or subcritical phases)	0.31
357.06 K, 6.6 kPa, Fluid (supercritical or subcritical phases)	0.32
357.06 K, 7 kPa, Fluid (supercritical or subcritical phases)	0.35
357.06 K, 7.4 kPa, Fluid (supercritical or subcritical phases)	0.43
357.06 K, 9.1 kPa, Fluid (supercritical or subcritical phases)	0.47
357.06 K, 9.5 kPa, Fluid (supercritical or subcritical phases)	0.49
357.06 K, 11 kPa, Fluid (supercritical or subcritical phases)	0.56
357.06 K, 12.4 kPa, Fluid (supercritical or subcritical phases)	0.6
357.06 K, 13.5 kPa, Fluid (supercritical or subcritical phases)	0.66
357.06 K, 14.9 kPa, Fluid (supercritical or subcritical phases)	0.76
357.06 K, 15.9 kPa, Fluid (supercritical or subcritical phases)	0.79
357.06 K, 17 kPa, Fluid (supercritical or subcritical phases)	0.85
357.06 K, 19.1 kPa, Fluid (supercritical or subcritical phases)	0.98
357.06 K, 21.6 kPa, Fluid (supercritical or subcritical phases)	1.08
357.06 K, 22.7 kPa, Fluid (supercritical or subcritical phases)	1.11
357.06 K, 24 kPa, Fluid (supercritical or subcritical phases)	1.15
357.06 K, 25.1 kPa, Fluid (supercritical or subcritical phases)	1.25
357.06 K, 26.3 kPa, Fluid (supercritical or subcritical phases)	1.3
357.06 K, 27.3 kPa, Fluid (supercritical or subcritical phases)	1.36
357.06 K, 28.4 kPa, Fluid (supercritical or subcritical phases)	1.4
357.06 K, 29.7 kPa, Fluid (supercritical or subcritical phases)	1.46
357.06 K, 30.8 kPa, Fluid (supercritical or subcritical phases)	1.51
357.06 K, 31.8 kPa, Fluid (supercritical or subcritical phases)	1.61
357.06 K, 34 kPa, Fluid (supercritical or subcritical phases)	1.66
357.06 K, 35.1 kPa, Fluid (supercritical or subcritical phases)	1.71
357.06 K, 36.4 kPa, Fluid (supercritical or subcritical phases)	1.75
357.06 K, 37.5 kPa, Fluid (supercritical or subcritical phases)	1.84
357.06 K, 38.5 kPa, Fluid (supercritical or subcritical phases)	1.93
357.06 K, 39.6 kPa, Fluid (supercritical or subcritical phases)	1.96
357.06 K, 40.6 kPa, Fluid (supercritical or subcritical phases)	2.02
357.06 K, 48 kPa, Fluid (supercritical or subcritical phases)	2.38
357.06 K, 58.6 kPa, Fluid (supercritical or subcritical phases)	2.86
357.06 K, 69.5 kPa, Fluid (supercritical or subcritical phases)	3.37
357.06 K, 80.9 kPa, Fluid (supercritical or subcritical phases)	3.92
357.06 K, 92.8 kPa, Fluid (supercritical or subcritical phases)	4.57
357.06 K, 104.1 kPa, Fluid (supercritical or subcritical phases)	5.19
357.06 K, 115 kPa, Fluid (supercritical or subcritical phases)	5.66
357.06 K, 125.7 kPa, Fluid (supercritical or subcritical phases)	6.22
357.06 K, 136.4 kPa, Fluid (supercritical or subcritical phases)	6.83
357.06 K, 148.3 kPa, Fluid (supercritical or subcritical phases)	7.41
357.06 K, 159.2 kPa, Fluid (supercritical or subcritical phases)	8.05
357.06 K, 170 kPa, Fluid (supercritical or subcritical phases)	8.65
357.06 K, 180.8 kPa, Fluid (supercritical or subcritical phases)	9.19
357.06 K, 191.6 kPa, Fluid (supercritical or subcritical phases)	9.77
357.06 K, 206.8 kPa, Fluid (supercritical or subcritical phases)	10.67
357.06 K, 232.7 kPa, Fluid (supercritical or subcritical phases)	11.91
357.06 K, 245.6 kPa, Fluid (supercritical or subcritical phases)	12.63
357.06 K, 258.5 kPa, Fluid (supercritical or subcritical phases)	13.31
357.06 K, 271.2 kPa, Fluid (supercritical or subcritical phases)	14.01
357.06 K, 284 kPa, Fluid (supercritical or subcritical phases)	14.69
357.06 K, 296.8 kPa, Fluid (supercritical or subcritical phases)	15.39
357.06 K, 309.5 kPa, Fluid (supercritical or subcritical phases)	16.12
357.06 K, 322.1 kPa, Fluid (supercritical or subcritical phases)	16.71
357.06 K, 334.9 kPa, Fluid (supercritical or subcritical phases)	17.44
357.06 K, 347.5 kPa, Fluid (supercritical or subcritical phases)	18.11
357.06 K, 360.2 kPa, Fluid (supercritical or subcritical phases)	18.86
357.06 K, 372.7 kPa, Fluid (supercritical or subcritical phases)	19.48
357.06 K, 385.4 kPa, Fluid (supercritical or subcritical phases)	20.16
357.06 K, 401.9 kPa, Fluid (supercritical or subcritical phases)	21.1
357.06 K, 415.8 kPa, Fluid (supercritical or subcritical phases)	21.9
357.06 K, 430.3 kPa, Fluid (supercritical or subcritical phases)	22.74
357.06 K, 445 kPa, Fluid (supercritical or subcritical phases)	23.53
357.06 K, 459.8 kPa, Fluid (supercritical or subcritical phases)	24.37
357.06 K, 474.6 kPa, Fluid (supercritical or subcritical phases)	25.15
357.06 K, 489.6 kPa, Fluid (supercritical or subcritical phases)	26
357.06 K, 504.5 kPa, Fluid (supercritical or subcritical phases)	26.95
357.06 K, 519.5 kPa, Fluid (supercritical or subcritical phases)	27.84
357.06 K, 534.4 kPa, Fluid (supercritical or subcritical phases)	28.66
357.06 K, 549.4 kPa, Fluid (supercritical or subcritical phases)	29.55
357.06 K, 564.2 kPa, Fluid (supercritical or subcritical phases)	30.41
357.06 K, 579 kPa, Fluid (supercritical or subcritical phases)	31.28
357.06 K, 593.8 kPa, Fluid (supercritical or subcritical phases)	32.12
357.06 K, 604.8 kPa, Fluid (supercritical or subcritical phases)	32.81
357.06 K, 619.6 kPa, Fluid (supercritical or subcritical phases)	33.65
357.06 K, 634.3 kPa, Fluid (supercritical or subcritical phases)	34.49
357.06 K, 648.9 kPa, Fluid (supercritical or subcritical phases)	35.43
357.06 K, 663.4 kPa, Fluid (supercritical or subcritical phases)	36.27
357.06 K, 677.9 kPa, Fluid (supercritical or subcritical phases)	37.14
357.06 K, 692.4 kPa, Fluid (supercritical or subcritical phases)	37.98
357.06 K, 706.7 kPa, Fluid (supercritical or subcritical phases)	38.87
357.06 K, 721 kPa, Fluid (supercritical or subcritical phases)	39.69
357.06 K, 735.2 kPa, Fluid (supercritical or subcritical phases)	40.55
357.06 K, 749.2 kPa, Fluid (supercritical or subcritical phases)	41.45
357.06 K, 763.3 kPa, Fluid (supercritical or subcritical phases)	42.35
357.06 K, 777.3 kPa, Fluid (supercritical or subcritical phases)	43.14
357.06 K, 791.2 kPa, Fluid (supercritical or subcritical phases)	44.03
357.06 K, 805.1 kPa, Fluid (supercritical or subcritical phases)	44.87
357.06 K, 818.9 kPa, Fluid (supercritical or subcritical phases)	45.78
357.06 K, 832.6 kPa, Fluid (supercritical or subcritical phases)	46.65
357.06 K, 846.3 kPa, Fluid (supercritical or subcritical phases)	47.44
357.06 K, 859.8 kPa, Fluid (supercritical or subcritical phases)	48.34
357.06 K, 873.5 kPa, Fluid (supercritical or subcritical phases)	49.21
357.06 K, 887 kPa, Fluid (supercritical or subcritical phases)	50.07
357.06 K, 900.7 kPa, Fluid (supercritical or subcritical phases)	50.9
357.06 K, 927.4 kPa, Fluid (supercritical or subcritical phases)	52.68
357.06 K, 940.7 kPa, Fluid (supercritical or subcritical phases)	53.53
357.06 K, 953.9 kPa, Fluid (supercritical or subcritical phases)	54.39
357.06 K, 966.4 kPa, Fluid (supercritical or subcritical phases)	55.2
357.06 K, 980.4 kPa, Fluid (supercritical or subcritical phases)	56.19
357.06 K, 992.5 kPa, Fluid (supercritical or subcritical phases)	56.92
357.06 K, 1019.3 kPa, Fluid (supercritical or subcritical phases)	58.76
357.06 K, 1047.3 kPa, Fluid (supercritical or subcritical phases)	60.62
357.06 K, 1075 kPa, Fluid (supercritical or subcritical phases)	62.53
357.06 K, 1101.6 kPa, Fluid (supercritical or subcritical phases)	64.29
357.06 K, 1126.7 kPa, Fluid (supercritical or subcritical phases)	66.03
357.06 K, 1151 kPa, Fluid (supercritical or subcritical phases)	67.74
357.06 K, 1176.3 kPa, Fluid (supercritical or subcritical phases)	69.58
357.06 K, 1201.9 kPa, Fluid (supercritical or subcritical phases)	71.4
357.06 K, 1228.4 kPa, Fluid (supercritical or subcritical phases)	73.29
357.06 K, 1259 kPa, Fluid (supercritical or subcritical phases)	75.66
357.06 K, 1289.5 kPa, Fluid (supercritical or subcritical phases)	77.81
357.06 K, 1322.3 kPa, Fluid (supercritical or subcritical phases)	80.32
357.06 K, 1338.6 kPa, Fluid (supercritical or subcritical phases)	81.39
357.06 K, 1356.1 kPa, Fluid (supercritical or subcritical phases)	82.86
357.06 K, 1372.3 kPa, Fluid (supercritical or subcritical phases)	84.1
357.06 K, 1389.3 kPa, Fluid (supercritical or subcritical phases)	85.41
357.06 K, 1417.8 kPa, Fluid (supercritical or subcritical phases)	87.61
357.06 K, 1448.6 kPa, Fluid (supercritical or subcritical phases)	89.98
357.06 K, 1476.5 kPa, Fluid (supercritical or subcritical phases)	92.14
357.06 K, 1508.7 kPa, Fluid (supercritical or subcritical phases)	94.88
357.06 K, 1525.6 kPa, Fluid (supercritical or subcritical phases)	96.25
357.06 K, 1543.7 kPa, Fluid (supercritical or subcritical phases)	97.72
357.06 K, 1568 kPa, Fluid (supercritical or subcritical phases)	99.77
357.06 K, 1585.8 kPa, Fluid (supercritical or subcritical phases)	101.24
357.06 K, 1616.4 kPa, Fluid (supercritical or subcritical phases)	103.7
357.06 K, 1633.9 kPa, Fluid (supercritical or subcritical phases)	105.22
